In patent publication US6642177B1, “Sarcoslnates as glufosinate adjuvants” (Hampshire Chemical Corp., priority 1998, dated 2003):

Experiments:
Format in all cases: in vivo
[1] = test system: Porol = Purslane, Common - Portulaca oleraca; assay: % control of common purslane 27 days after treatment; settings: rate 0.32 lbs. ai/A
[2] = test system: glufosinate tolerant field corn variety Pioneer 34A55; assay: Phytotoxicity rating on glufosinate tolerant field corn (chlorosis, necrosis, abnormal growth); settings: 1.46 Lbs ai/acre, 10 ml into the whorl
Description: Seeds were germinated in 4 inch pots and maintained for one month with regular watering and temperatures to simulate field conditions. […] Each treatment was replicated four times in a randomized complete block design. […] The volume of 10 ml was selected to fill the whorl of the largest plant in the study, all others were filled to running over.
An application volume of 15 gal/acre was used to determine the mix concentration used.
The treatments were evaluated for phytotoxicity in the form of chlorosis, necrosis and abnormal growth by visually inspecting each plant. When damage was present, each plant was given a damage rating from 0 to 10 with 0 indicating no effect and 10 indicating death.

[3] = test system: Polpy = Smartweed, Pennsylvania - Polygonium pensylvanicum; assay: % control of Pennsylvania smartweed 27 days after treatment; settings: rate 0.32 lbs. ai/A
[4] = test system: Setia = Foxtail., Giant - setaria; assay: % control of giant foxtail 27 days after treatment; settings: rate 0.32 lbs. ai/A
[5] = test system: Plant Species (Setia, Porol, Amabl, Polpy, Sotlu); nuisance weeds; assay: % control over the five plant species (total, average) 27 days after treatment; settings: rate 0.32 lbs. ai/A
[6] = test system: Amabl = Pigweed, Prostrate - Amaranthus blitoides; assay: % control of prostrate pigweed 27 days after treatment; settings: rate 0.32 lbs. ai/A
[7] = test system: Setiu + Foxtail, Yellow - Sataria Leutescens; assay: % control of yellow foxtail 27 days after treatment; settings: rate 0.32 lbs. ai/A

Substance: 2-amino-4-(hydroxymethyl phosphinyl) butanoic acid [Glufosinate]
- % Control 27 Days After Treatment, Porol [1]: 78.33%
- Ratings 20 days after treatment (damage rating 0 to 10, 0 no effect, 10 death) [2]: 0.8 b
- % Control 27 Days After Treatment, Polpy [3]: 81.67%
- % Control 27 Days After Treatment, Setia [4]: 61.67%
- % Control 27 Days After Treatment, Average ([5]; average over five plant species): 71.00%
- % Control 27 Days After Treatment, Total ([5]; sum over five plant species): 355.00%
- % Control 27 Days After Treatment, Amabl [6]: 73.33%
- % Control 27 Days After Treatment, Sotlu [7]: 60.00%
